Structures can show the parent of a compound that is named as a salt.
Experiment: Water solubility of the isolated potassium salt
Format: physicochemical
Details: solid obtained from the acid with KOH in MeOH (potassium salt)
Procedure: The compound of Example 137 was hydrolyzed using an excess of aqueous 10% NaOH in methanol, stirring overnight. The reaction mixture was concentrated in vacuo, water was added, and the solution was extracted with ether. The mixture was acidified; the resultant solid was collected by filtration and dried overnight in a vacuum oven, giving a white solid, m.p. 166-171C. ^1H-NMR (DMSO 300 MHz) δ 1.17 (t, J=7 Hz, 3H), broad peaks totaling 9 protons at 1.32-1.48, 1.51-1.78, 1.90-2.04, 2.25-2.50, 2.80-2.90, 2.95-3.17, 3.45-3.51, 3.95-4.19, 4.41-4.51, 4.06 (q, J=7 Hz, 1H), 6.80 (d, J=9 Hz, 1H), 7.01 (t, J=7 Hz, 1H), 7.15 (d, J=8 Hz, 1H), 7.26-7.40 (m, 2H), 7.40-7.48 (m, 1H), 7.51 (dd, J=9 Hz, 2 Hz, 1H), 7.99 (d, J=9 Hz, 1H). Anal. Calcd. for C23H24ClNO4S: C, 61.94; H, 5.42; N, 3.14. Found: C, 61.75; H, 5.65; N, 3.15. The resultant acid (303 mg, 0.631 mmol) was dissolved in 3 mL MeOH. A KOH solution (38 mg, 0.595 mmol, of 87.6% KOH) in 1 ml MeOH was added. The resulting solution was concentrated in vacuo, and 5 mL ether was added. The mixture was stirred for one hour to form a powder, which was filtered and dried in the vacuum oven at 60C to yield 307 mg of a solid, water soluble product. […]
For `CCOc1ccccc1Sc1ccc(/C=C/C(=O)N2CCCC(C(=O)O)C2)cc1Cl` (stereo not shown) [Example 155, (2-Ethoxyphenyl)-[2-chloro-4-(E-[(3-carboxypiperidin-1-yl)carbonyl]ethenyl)phenyl]sulfide], the solubility in water was “water soluble”. In the case of `CCOc1ccccc1Sc1ccc(/C=C/C(=O)N2CCCC(C(=O)O)C2)c(Cl)c1Cl` (stereo not shown) [Example 343], the solubility in water is reported as “water-soluble”.

Experiment: not given
Details: not given
In the case of `O=C(O)CN1CCN(C(=O)/C=C/c2ccc(Sc3ccc4c(c3)OCCO4)c([N+](=O)[O-])c2)CC1` (as salt: salt) [Example 221, (Benzodioxan-6-yl)[2-nitro-4-(E-((4-carboxymethylpiperazin-1-yl)carbonyl)ethenyl)phenyl]sulfide], the melting point is reported as 120 °C (dec.). For `CCOc1ccccc1Sc1ccc(/C=C/C(=O)N2CCCC(C(=O)O)C2)cc1Cl` (stereo not shown) [Example 155, (2-Ethoxyphenyl)-[2-chloro-4-(E-[(3-carboxypiperidin-1-yl)carbonyl]ethenyl)phenyl]sulfide], the melting point was 166 to 171 °C. `CCOc1ccccc1Sc1ccc(/C=C/C(=O)N2CCCCC2C(=O)O)cc1Cl` (stereo not shown) [Example 158, (2-Ethoxyphenyl)-[2-chloro-4-(E-[(2-carboxypiperidin-1-yl)carbonyl]ethenyl)phenyl]sulfide] showed a melting point of 170 to 171 °C. With `CCOC(=O)C1CCCN(C(=O)/C=C/c2ccc(Sc3ccc4c(c3)OCCO4)c([N+](=O)[O-])c2)C1` (stereo not shown) [Example 197, (Benzodioxan-6-yl)[2-nitro-4-(E-((3-carboethoxypiperidin-1-yl)carbonyl)ethenyl)phenyl]sulfide] the melting point was 73 to 75 °C. With `CCOC(=O)C1CCCCN1C(=O)/C=C/c1ccc(Sc2ccc3c(c2)OCCO3)c([N+](=O)[O-])c1` (stereo not shown) [Example 203, (Benzodioxan-6-yl)[2-nitro-4-(E-((2-carboethoxypiperidin-1-yl)carbonyl)ethenyl)phenyl]sulfide] the melting point was 74 to 75 °C. In the case of `CC(C)(C)OC(=O)N1CCN(C(=O)/C=C/c2ccc(Sc3ccc4c(c3)OCCO4)c([N+](=O)[O-])c2)CC1` [Example 205, (Benzodioxan-6-yl)[2-nitro-4-(E-((4-tert-butoxycarbonylpiperazin-1-yl)carbonyl)ethenyl)phenyl]sulfide], the melting point is reported as 165 to 167 °C. For `O=C(O)C1CCCCN1C(=O)/C=C/c1ccc(Sc2ccc3c(c2)OCCO3)c([N+](=O)[O-])c1` (stereo not shown) [Example 220, (Benzodioxan-6-yl)[2-nitro-4-(E-((2-carboxypiperidin-1-yl)carbonyl)ethenyl)phenyl]sulfide], the melting point was 165 °C (dec.). `COC(=O)C1CN(C(=O)OC(C)(C)C)CCN1C(=O)/C=C/c1ccc(Sc2ccc3c(c2)OCCO3)c(C(F)(F)F)c1` (stereo not shown) [Example 253, (Benzodioxan-6-yl)[2-trifluoromethyl-4-(E-((2-carbomethoxy-4-tert-butoxycarbonylpiperazin-1-yl)carbonyl)ethenyl)phenyl]sulfide] gave a melting point of 85 to 87 °C. With `COC(=O)C1CNCCN1C(=O)/C=C/c1ccc(Sc2ccc3c(c2)OCCO3)c(C(F)(F)F)c1` (stereo not shown) [Example 255, (Benzodioxan-6-yl)[2-trifluoromethyl-4-(E-((2-carbomethoxypiperazin-1-yl)carbonyl)ethenyl)phenyl]sulfide] the melting point was 70 to 72 °C. With `O=C(O)C1CCN(C(=O)/C=C/c2ccc(Sc3ccc4c(c3)OCCO4)c(C(F)(F)F)c2)CC1` [Example 263, (Benzodioxan-6-yl)[2-trifluoromethyl-4-(E-((4-carboxypiperidin-1-yl)carbonyl)ethenyl)phenyl]sulfide] the melting point was 88 °C (dec.). With `O=C(O)C1CCCCN1C(=O)/C=C/c1ccc(Sc2ccc3c(c2)OCCO3)c(C(F)(F)F)c1` (stereo not shown) [Example 264, (Benzodioxan-6-yl)[2-trifluoromethyl-4-(E-((2-carboxypiperidin-1-yl)carbonyl)ethenyl)phenyl]sulfide] the melting point was 90 °C (dec.). In the case of `COC(=O)C1CN(C(=O)/C=C/c2ccc(Sc3ccc4c(c3)OCCO4)c(C(F)(F)F)c2)CCN1C(=O)OC` (stereo not shown) [Example 269, (Benzodioxan-6-yl)[2-trifluoromethyl-4-(E-((3-carbomethoxy-4-methoxycarbonylpiperazin-1-yl)carbonyl)ethenyl)phenyl]sulfide], the melting point is reported as 56 °C (dec.). For `COC(=O)N1CCN(C(=O)/C=C/c2ccc(Sc3ccc4c(c3)OCCO4)c(C(F)(F)F)c2)C(C(=O)O)C1` (stereo not shown) [Example 271, (Benzodioxan-6-yl)[2-trifluoromethyl-4-(E-((2-carboxy-4-methoxycarbonylpiperazin-1-yl)carbonyl)ethenyl)phenyl]sulfide], the melting point was 102 °C (dec.). In the case of `Nc1ccccc1Sc1ccc(/C=C/C(=O)N2CCOCC2)c(Cl)c1Cl` [Example 410, (2-Aminophenyl)[2,3-dichloro-4-(E-((4-morpholinyl)carbonyl)ethenyl)phenyl]sulfide], the melting point is reported as 230 to 240 °C (dec.).

— patent US6878700B1, “Cell adhesion-inhibiting antiinflammatory and immune-suppressive compounds” (Abbott Laboratories, priority 1998, dated 2005)
